Results reported in patent publication US12304932B2, “PACAP stabilized peptide” (SENJU PHARMACEUTICAL CO., LTD., priority 2017, dated 2025).
Square brackets hold non-standard residues; d marks the D form. Peptide text beside a SMILES is read from it. * marks the point of attachment. Ala(1H-tetrazol-5-yl) = N[C@@H](Cc1nnn[nH]1)C(=O)O; Ms = CS(=O)(=O)*

Experiment: Peptide stability tests 2 and 3: Tris buffer pH 7.0, stored at 60° C., HPLC conditions 2
Type: physicochemical
Conditions: 100 μM peptide, Tris buffer pH 7.0, 60° C.; for survival rate after correction for water, 60° C., 2-week storage / survival rate after correction for water, 60° C., 2-week storage (Table 7-2): 2 weeks
Description: (§1) Peptides 1, 2 and 6 to 9 synthesized in Example 2 were weighed and dissolved in Tris buffer (pH 7.0) to prepare 1.0 mM peptide solutions. The solutions were filtered with a Chromatdisk (product of Merck Millipore, Millex-GV, 0.22 μm). Each filtrate was diluted to 100 μM with Tris buffer (pH 7.0) and dispensed into a tube (Protein LoBind Tube by Eppendorf Co.). The prepared peptide solutions were incubated for 1 week or 2 weeks in a 60° C. thermostatic bath to obtain stored samples. A simultaneously prepared sample among the peptide solutions that was not stored was used as a standard sample (initial sample). The standard sample and the stored samples were stored at −30° C. until sample analysis.
Each stored sample was measured under the following HPLC analysis conditions 2, and the survival rate after correction for water for each peptide among the stored samples was calculated in the same manner as Example 3.
Column: XSelect CSH C18 by Waters Co., 5 μm, 4.6×250 mm
Guard column: XSelect CSH C18 by Waters. Co., 5 μm, 4.6×20 mm Guard Cartridge
Detection wavelength: 220 nm
Mobile phase A: 0.1% formic acid in water
Mobile phase B: 0.1% formic acid in acetonitrile
Measuring time: 20 minutes
Measuring sample injection rate: 50 μL
Column temperature: 40° C.
Mobile phase delivery: The mixing ratio of mobile phase A and mobile phase B was varied as shown in Table 5 for linear concentration gradient control.
as §1, with “Peptides 12 to 25, 27” for “Peptides 1, 2”, “and 28” for “and 6 to 9”, “for one” for “for 1”
The survival rate after correction for water for each peptide among the stored samples was calculated in the same manner as Example 4, and the results are shown in Table 7.
as §1, with “29” for “1, 2 and 6”, “34” for “9”, “for” for “for 1 week or”
The survival rate after correction for water for each peptide among the stored samples was calculated in the same manner as Example 4, and the results are shown in Table 7-2.

CC[C@H](C)[C@H](NC(=O)CNC(=O)[C@H](Cc1nnn[nH]1)NC(=O)[C@H](CO)NC(=O)[C@H](Cc1c[nH]cn1)NC(C)=O)C(=O)N[C@@H](Cc1ccccc1)C(=O)N[C@H](C(=O)N[C@@H](Cc1nnn[nH]1)C(=O)N[C@@H](CO)C(=O)N[C@@H](Cc1ccc(O)cc1)C(=O)N[C@@H](CO)C(=O)N[C@@H](CCCNC(=N)N)C(=O)N[C@@H](Cc1ccc(O)cc1)C(=O)N[C@@H](CCCNC(=N)N)C(=O)N[C@@H](CCCNC(=N)N)C(=O)N[C@@H](CCC(N)=O)C(=O)N[C@@H](CC(C)C)C(=O)N[C@@H](C)C(=O)N[C@H](C(=O)N[C@@H](CCCNC(=N)N)C(=O)N[C@@H](CCCNC(=N)N)C(=O)N[C@@H](Cc1ccc(O)cc1)C(=O)N[C@@H](CC(C)C)C(=O)N[C@@H](C)C(=O)N[C@@H](C)C(=O)N[C@H](C(=O)N[C@@H](CC(C)C)C(=O)NCC(=O)N[C@@H](CCCNC(=N)N)C(=O)N[C@@H](CCCNC(=N)N)C(N)=O)C(C)C)C(C)C)[C@@H](C)O [Peptide 22] (Ac-HS[Ala(1H-tetrazol-5-yl)]GIFT[Ala(1H-tetrazol-5-yl)]SYSRYRRQLAVRRYLAAVLGRR-NH2)
survival rate after correction for water, 60° C., 1-week storage: 98.2%

CC[C@H](C)[C@H](NC(=O)CNC(=O)[C@H](Cc1nnn[nH]1)NC(=O)[C@H](CO)NC(=O)[C@H](Cc1c[nH]cn1)NC(C)=O)C(=O)N[C@@H](Cc1ccccc1)C(=O)N[C@H](C(=O)N[C@@H](Cc1nnn[nH]1)C(=O)N[C@@H](CO)C(=O)N[C@@H](Cc1ccc(O)cc1)C(=O)N[C@@H](CO)C(=O)N[C@@H](CCCNC(=N)N)C(=O)N[C@@H](Cc1ccc(O)cc1)C(=O)N[C@@H](CCCNC(=N)N)C(=O)N[C@@H](CCCCN)C(=O)N[C@@H](CCC(N)=O)C(=O)N[C@@H](C)C(=O)N[C@@H](C)C(=O)N[C@H](C(=O)N[C@@H](CCCCN)C(=O)N[C@@H](CCCCN)C(=O)N[C@@H](Cc1ccc(O)cc1)C(=O)N[C@@H](CC(C)C)C(=O)N[C@@H](C)C(=O)N[C@@H](C)C(=O)N[C@H](C(=O)N[C@@H](CC(C)C)C(N)=O)C(C)C)C(C)C)[C@@H](C)O [Peptide 18] (Ac-HS[Ala(1H-tetrazol-5-yl)]GIFT[Ala(1H-tetrazol-5-yl)]SYSRYRKQAAVKKYLAAVL-NH2)
survival rate after correction for water, 60° C., 1-week storage: 96.7% | survival rate after correction for water, 60° C., 2-week storage: 90.6%

CC[C@H](C)[C@H](NC(=O)[C@H](C)NC(=O)[C@H](Cc1nnn[nH]1)NC(=O)[C@H](CO)NC(=O)[C@H](Cc1c[nH]cn1)NS(C)(=O)=O)C(=O)N[C@@H](Cc1ccccc1)C(=O)N[C@H](C(=O)N[C@@H](Cc1nnn[nH]1)C(=O)N[C@@H](CO)C(=O)N[C@@H](Cc1ccc(O)cc1)C(=O)N[C@@H](CO)C(=O)N[C@@H](CCCNC(=N)N)C(=O)N[C@@H](Cc1ccc(O)cc1)C(=O)N[C@@H](CCCNC(=N)N)C(=O)N[C@@H](CCCCN)C(=O)N[C@@H](CCC(N)=O)C(=O)N[C@@H](C)C(=O)N[C@@H](C)C(=O)N[C@H](C(=O)N[C@@H](CCCCN)C(=O)N[C@@H](CCCCN)C(=O)N[C@@H](Cc1ccc(O)cc1)C(=O)N[C@@H](CC(C)C)C(=O)N[C@@H](C)C(=O)N[C@@H](C)C(=O)N[C@H](C(=O)N[C@@H](CC(C)C)C(N)=O)C(C)C)C(C)C)[C@@H](C)O [Peptide 31] (Ms-HS[Ala(1H-tetrazol-5-yl)]AIFT[Ala(1H-tetrazol-5-yl)]SYSRYRKQAAVKKYLAAVL-NH2)
survival rate after correction for water, 60° C., 2-week storage (Table 7-2): 90.1%

CC[C@H](C)[C@H](NC(=O)[C@H](C)NC(=O)[C@H](Cc1nnn[nH]1)NC(=O)[C@H](CO)NC(=O)[C@H](Cc1c[nH]cn1)NC(C)=O)C(=O)N[C@@H](Cc1ccccc1)C(=O)N[C@H](C(=O)N[C@@H](Cc1nnn[nH]1)C(=O)N[C@@H](CO)C(=O)N[C@@H](Cc1ccc(O)cc1)C(=O)N[C@@H](CO)C(=O)N[C@@H](CCCNC(=N)N)C(=O)N[C@@H](Cc1ccc(O)cc1)C(=O)N[C@@H](CCCNC(=N)N)C(=O)N[C@@H](CCCCN)C(=O)N[C@@H](CCC(N)=O)C(=O)N[C@@H](C)C(=O)N[C@@H](C)C(=O)N[C@H](C(=O)N[C@@H](CCCCN)C(=O)N[C@@H](CCCCN)C(=O)N[C@@H](Cc1ccc(O)cc1)C(=O)N[C@@H](CC(C)C)C(=O)N[C@@H](C)C(=O)N[C@@H](C)C(=O)N[C@H](C(=O)N[C@@H](CC(C)C)C(N)=O)C(C)C)C(C)C)[C@@H](C)O [Peptide 32] (Ac-HS[Ala(1H-tetrazol-5-yl)]AIFT[Ala(1H-tetrazol-5-yl)]SYSRYRKQAAVKKYLAAVL-NH2)
survival rate after correction for water, 60° C., 2-week storage (Table 7-2): 88.7%

CC[C@H](C)[C@H](NC(=O)CNC(=O)[C@H](Cc1nnn[nH]1)NC(=O)[C@H](C)NC(=O)[C@H](Cc1c[nH]cn1)NC(C)=O)C(=O)N[C@@H](Cc1ccccc1)C(=O)N[C@H](C(=O)N[C@@H](Cc1nnn[nH]1)C(=O)N[C@@H](CO)C(=O)N[C@@H](Cc1ccc(O)cc1)C(=O)N[C@@H](CO)C(=O)N[C@@H](CCCNC(=N)N)C(=O)N[C@@H](Cc1ccc(O)cc1)C(=O)N[C@@H](CCCNC(=N)N)C(=O)N[C@@H](CCCCN)C(=O)N[C@@H](CCC(N)=O)C(=O)N[C@@H](C)C(=O)N[C@@H](C)C(=O)N[C@H](C(=O)N[C@@H](CCCCN)C(=O)N[C@@H](CCCCN)C(=O)N[C@@H](Cc1ccc(O)cc1)C(=O)N[C@@H](CC(C)C)C(=O)N[C@@H](C)C(=O)N[C@@H](C)C(=O)N[C@H](C(=O)N[C@@H](CC(C)C)C(N)=O)C(C)C)C(C)C)[C@@H](C)O [Peptide 25] (Ac-HA[Ala(1H-tetrazol-5-yl)]GIFT[Ala(1H-tetrazol-5-yl)]SYSRYRKQAAVKKYLAAVL-NH2)
survival rate after correction for water, 60° C., 1-week storage: 95.8% | survival rate after correction for water, 60° C., 2-week storage: 91.2%

CC[C@H](C)[C@H](NC(=O)[C@H](C)NC(=O)[C@H](Cc1nnn[nH]1)NC(=O)[C@H](CO)NC(=O)[C@H](Cc1c[nH]cn1)NC(C)=O)C(=O)N[C@@H](Cc1ccccc1)C(=O)N[C@H](C(=O)N[C@@H](Cc1nnn[nH]1)C(=O)N[C@@H](CO)C(=O)N[C@@H](Cc1ccc(O)cc1)C(=O)N[C@@H](CO)C(=O)N[C@@H](CCCNC(=N)N)C(=O)N[C@@H](Cc1ccc(O)cc1)C(=O)N[C@@H](CCCNC(=N)N)C(=O)N[C@@H](CCCCN)C(=O)N[C@@H](CCC(N)=O)C(=O)N[C@@H](CC(C)C)C(=O)N[C@@H](C)C(=O)N[C@H](C(=O)N[C@@H](CCCCN)C(=O)N[C@@H](CCCCN)C(=O)N[C@@H](Cc1ccc(O)cc1)C(=O)N[C@@H](CC(C)C)C(=O)N[C@@H](C)C(=O)N[C@@H](C)C(=O)N[C@H](C(=O)N[C@@H](CC(C)C)C(N)=O)C(C)C)C(C)C)[C@@H](C)O [Peptide 23] (Ac-HS[Ala(1H-tetrazol-5-yl)]AIFT[Ala(1H-tetrazol-5-yl)]SYSRYRKQLAVKKYLAAVL-NH2)
survival rate after correction for water, 60° C., 1-week storage: 96.5% | survival rate after correction for water, 60° C., 2-week storage: 93.1%

CC[C@H](C)[C@H](NC(=O)CNC(=O)[C@H](Cc1nnn[nH]1)NC(=O)[C@H](CO)NC(=O)[C@H](Cc1c[nH]cn1)NC(C)=O)C(=O)N[C@@H](Cc1ccccc1)C(=O)N[C@H](C(=O)N[C@@H](Cc1nnn[nH]1)C(=O)N[C@@H](CO)C(=O)N[C@@H](Cc1ccc(O)cc1)C(=O)N[C@@H](CO)C(=O)N[C@@H](CCCNC(=N)N)C(=O)N[C@@H](Cc1ccc(O)cc1)C(=O)N[C@@H](CCCNC(=N)N)C(=O)N[C@@H](CCCNC(=N)N)C(=O)N[C@@H](CCC(N)=O)C(=O)N[C@@H](CC(C)C)C(=O)N[C@@H](C)C(=O)N[C@H](C(=O)N[C@@H](CCCNC(=N)N)C(=O)N[C@@H](CCCNC(=N)N)C(=O)N[C@@H](Cc1ccc(O)cc1)C(=O)N[C@@H](CC(C)C)C(=O)N[C@@H](C)C(=O)N[C@@H](C)C(=O)N[C@H](C(=O)N[C@@H](CC(C)C)C(N)=O)C(C)C)C(C)C)[C@@H](C)O [Peptide 21] (Ac-HS[Ala(1H-tetrazol-5-yl)]GIFT[Ala(1H-tetrazol-5-yl)]SYSRYRRQLAVRRYLAAVL-NH2)
survival rate after correction for water, 60° C., 1-week storage: 97.8% | survival rate after correction for water, 60° C., 2-week storage: 93.5%
